≈ marks a conversion by molar mass, not a printed value.
Tests used:
Type in all cases: functional
Details in all cases: time 16-20 hrs
Cronobacter sakazakii = test: Antibacterial activity against Cronobacter sakazakii ATCC 29544 incubated for 16 to 20 hrs by broth microdilution method
Escherichia coli = test: Antibacterial activity against Escherichia coli ATCC 25922 incubated for 16 to 20 hrs by broth microdilution method
Klebsiella pneumoniae = test: Antibacterial activity against Klebsiella pneumoniae ATCC 13883 incubated for 16 to 20 hrs by broth microdilution method
Staphylococcus aureus = test: Antibacterial activity against Staphylococcus aureus ATCC 25923 incubated for 16 to 20 hrs by broth microdilution method

Question: Which MIC (Cronobacter sakazakii) does the source give for `CC[C@H]1OC(=O)C[C@@H](O)[C@H](C)[C@@H](O[C@@H]2O[C@H](C)[C@@H](O)[C@H](N(C)C)[C@H]2O)[C@@H](CCN(C)Cc2cn(-c3cnc4ccccc4c3)nn2)C[C@@H](C)C(=O)/C=C/C(C)=C/[C@@H]1CN(C)CC` here?
Answer: Its MIC is 8 µg/mL (≈ 9.28 µM).

Question: What about the MIC (Escherichia coli) of the same compound?
Answer: The MIC was 8 µg/mL (≈ 9.28 µM).

Question: What about the MIC (Klebsiella pneumoniae) of the same compound?
Answer: Its MIC is 8 µg/mL (≈ 9.28 µM).

Question: What about the MIC (Staphylococcus aureus) of the same compound?
Answer: Its MIC is 1 µg/mL (≈ 1.16 µM).

Question: `CC[C@H]1OC(=O)C[C@@H](O)[C@H](C)[C@@H](O[C@@H]2O[C@H](C)[C@@H](O)[C@H](N(C)C)[C@H]2O)[C@@H](CCN(Cc2ccc(C(F)(F)F)cc2)Cc2cn(-c3cnc4ccccc4c3)nn2)C[C@@H](C)C(=O)/C=C/C(C)=C/[C@@H]1CN1CC(C)CC(C)C1` (stereo partly drawn) was tested. Which MIC (Cronobacter sakazakii) did it give?
Answer: The MIC was 16 µg/mL (≈ 15.1 µM).

Question: What about the MIC (Escherichia coli) of the same compound?
Answer: Its MIC is 32 µg/mL (≈ 30.2 µM).

Question: What about the MIC (Klebsiella pneumoniae) of the same compound?
Answer: Its MIC is 16 µg/mL (≈ 15.1 µM).

Question: And the MIC (Staphylococcus aureus)?
Answer: The MIC was 4 µg/mL (≈ 3.77 µM).

Question: Which results are given for `CC[C@H]1OC(=O)C[C@@H](O)[C@H](C)[C@@H](O[C@@H]2O[C@H](C)[C@@H](O)[C@H](N(C)C)[C@H]2O)[C@@H](CCN(Cc2ccc(OC)cc2)Cc2cn(-c3cnc4ccccc4c3)nn2)C[C@@H](C)C(=O)/C=C/C(C)=C/[C@@H]1CN1CCC(O)CC1`?
Answer: MIC (Cronobacter sakazakii): 32 µg/mL (≈ 31.7 µM); MIC (Escherichia coli): 8 µg/mL (≈ 7.92 µM); MIC (Klebsiella pneumoniae): 8 µg/mL (≈ 7.92 µM); MIC (Staphylococcus aureus): 2 µg/mL (≈ 1.98 µM)

Question: What does the source list for `CC[C@H]1OC(=O)C[C@@H](O)[C@H](C)[C@@H](O[C@@H]2O[C@H](C)[C@@H](O)[C@H](N(C)C)[C@H]2O)[C@@H](CCN(Cc2ccc(C(F)(F)F)cc2)Cc2cn(-c3cnc4ccccc4c3)nn2)C[C@@H](C)C(=O)/C=C/C(C)=C/[C@@H]1CN1CCCCC1`?
Answer: MIC (Cronobacter sakazakii): 16 µg/mL (≈ 15.5 µM); MIC (Escherichia coli): 8 µg/mL (≈ 7.75 µM); MIC (Klebsiella pneumoniae): 16 µg/mL (≈ 15.5 µM); MIC (Staphylococcus aureus): 1 µg/mL (≈ 0.969 µM)

Question: `CCCN(CCC)C[C@H]1/C=C(C)/C=C/C(=O)[C@H](C)C[C@H](CCN(Cc2ccc(Br)cc2)Cc2cn(-c3cnc4ccccc4c3)nn2)[C@H](O[C@@H]2O[C@H](C)[C@@H](O)[C@H](N(C)C)[C@H]2O)[C@@H](C)[C@H](O)CC(=O)O[C@@H]1CC` was tested. Which MIC (Cronobacter sakazakii) did it give?
Answer: Its MIC is 8 µg/mL (≈ 7.55 µM).

Question: And the MIC (Escherichia coli)?
Answer: Its MIC is 8 µg/mL (≈ 7.55 µM).

Question: What about the MIC (Klebsiella pneumoniae) of the same compound?
Answer: Its MIC is 8 µg/mL (≈ 7.55 µM).

Question: What about the MIC (Staphylococcus aureus) of the same compound?
Answer: The MIC was 1 µg/mL (≈ 0.944 µM).

Question: With `CC[C@H]1OC(=O)C[C@@H](O)[C@H](C)[C@@H](O[C@@H]2O[C@H](C)[C@@H](O)[C@H](N(C)C)[C@H]2O)[C@@H](CCN(Cc2cccnc2)Cc2cn(-c3cnc4ccccc4c3)nn2)C[C@@H](C)C(=O)/C=C/C(C)=C/[C@@H]1CO` as the compound, how does the MIC (Cronobacter sakazakii) read?
Answer: The MIC was 32 µg/mL (≈ 35.6 µM).

Question: And the MIC (Escherichia coli)?
Answer: Its MIC is 32 µg/mL (≈ 35.6 µM).

Question: And the MIC (Klebsiella pneumoniae)?
Answer: Its MIC is 32 µg/mL (≈ 35.6 µM).

Question: What about the MIC (Staphylococcus aureus) of the same compound?
Answer: Its MIC is 0.5 µg/mL (≈ 0.557 µM).

Question: What does the source list for `CC[C@H]1OC(=O)C[C@@H](O)[C@H](C)[C@@H](O[C@@H]2O[C@H](C)[C@@H](O)[C@H](N(C)C)[C@H]2O)[C@@H](CCN(Cc2cn(-c3cnc4ccccc4c3)nn2)Cc2ccco2)C[C@@H](C)C(=O)/C=C/C(C)=C/[C@@H]1CO`?
Answer: MIC (Cronobacter sakazakii): 32 µg/mL (≈ 36.1 µM); MIC (Escherichia coli): 8 µg/mL (≈ 9.02 µM); MIC (Klebsiella pneumoniae): 16 µg/mL (≈ 18 µM); MIC (Staphylococcus aureus): 0.125 µg/mL (≈ 0.141 µM)

Question: `CC[C@H]1OC(=O)C[C@@H](O)[C@H](C)[C@@H](O[C@@H]2O[C@H](C)[C@@H](O)[C@H](N(C)C)[C@H]2O)[C@@H](CCN(Cc2ccc(OC)cc2)Cc2cn(-c3cnc4ccccc4c3)nn2)C[C@@H](C)C(=O)/C=C/C(C)=C/[C@@H]1CN1CC(C)CC(C)C1` (stereo partly drawn) was tested. Which MIC (Cronobacter sakazakii) did it give?
Answer: The MIC was 32 µg/mL (≈ 31.3 µM).

Question: And the MIC (Escherichia coli)?
Answer: The MIC was 16 µg/mL (≈ 15.7 µM).

Question: And the MIC (Klebsiella pneumoniae)?
Answer: Its MIC is 16 µg/mL (≈ 15.7 µM).

Question: What about the MIC (Staphylococcus aureus) of the same compound?
Answer: The MIC was 2 µg/mL (≈ 1.96 µM).

Question: With `CC[C@H]1OC(=O)C[C@@H](O)[C@H](C)[C@@H](O[C@@H]2O[C@H](C)[C@@H](O)[C@H](N(C)C)[C@H]2O)[C@@H](CCN(C)Cc2cn(-c3cnc4ccccc4c3)nn2)C[C@@H](C)C(=O)/C=C/C(C)=C/[C@@H]1CN(C)C(C)C` as the compound, how does the MIC (Cronobacter sakazakii) read?
Answer: Its MIC is 16 µg/mL (≈ 18.3 µM).

Question: What about the MIC (Escherichia coli) of the same compound?
Answer: The MIC was 8 µg/mL (≈ 9.13 µM).

Question: And the MIC (Klebsiella pneumoniae)?
Answer: The MIC was 8 µg/mL (≈ 9.13 µM).

Question: What about the MIC (Staphylococcus aureus) of the same compound?
Answer: The MIC was 0.5 µg/mL (≈ 0.571 µM).

Question: With `CC[C@H]1OC(=O)C[C@@H](O)[C@H](C)[C@@H](O[C@@H]2O[C@H](C)[C@@H](O)[C@H](N(C)C)[C@H]2O)[C@@H](CCN(Cc2ccccc2)Cc2cn(-c3cnc4ccccc4c3)nn2)C[C@@H](C)C(=O)/C=C/C(C)=C/[C@@H]1CN1CCCCC1` as the compound, how does the MIC (Cronobacter sakazakii) read?
Answer: The MIC was 8 µg/mL (≈ 8.3 µM).

Question: And the MIC (Escherichia coli)?
Answer: Its MIC is 8 µg/mL (≈ 8.3 µM).

Question: And the MIC (Klebsiella pneumoniae)?
Answer: The MIC was 8 µg/mL (≈ 8.3 µM).

Question: And the MIC (Staphylococcus aureus)?
Answer: Its MIC is 1 µg/mL (≈ 1.04 µM).

Question: What does the source list for `CCCCN(CCCC)C[C@H]1/C=C(C)/C=C/C(=O)[C@H](C)C[C@H](CCN(Cc2ccc(Br)cc2)Cc2cn(-c3cnc4ccccc4c3)nn2)[C@H](O[C@@H]2O[C@H](C)[C@@H](O)[C@H](N(C)C)[C@H]2O)[C@@H](C)[C@H](O)CC(=O)O[C@@H]1CC`?
Answer: MIC (Cronobacter sakazakii): 16 µg/mL (≈ 14.7 µM); MIC (Escherichia coli): 8 µg/mL (≈ 7.36 µM); MIC (Klebsiella pneumoniae): 16 µg/mL (≈ 14.7 µM); MIC (Staphylococcus aureus): 1 µg/mL (≈ 0.92 µM)

Question: For `CC[C@H]1OC(=O)C[C@@H](O)[C@H](C)[C@@H](O[C@@H]2O[C@H](C)[C@@H](O)[C@H](N(C)C)[C@H]2O)[C@@H](CCN(Cc2ccc(C)cc2)Cc2cn(-c3cnc4ccccc4c3)nn2)C[C@@H](C)C(=O)/C=C/C(C)=C/[C@@H]1CO`, which MIC (Cronobacter sakazakii) is on record?
Answer: Its MIC is 16 µg/mL (≈ 17.6 µM).

Question: What about the MIC (Escherichia coli) of the same compound?
Answer: Its MIC is 16 µg/mL (≈ 17.6 µM).

Question: And the MIC (Klebsiella pneumoniae)?
Answer: The MIC was 16 µg/mL (≈ 17.6 µM).

Question: What about the MIC (Staphylococcus aureus) of the same compound?
Answer: The MIC was 0.5 µg/mL (≈ 0.549 µM).
